{"source": "paper PMC10070635", "about": "“Targeting Enterococcus faecalis HMG-CoA reductase with a non-statin inhibitor” (Communications Biology, 2023)", "key": {"[1]": {"molecular_target": "T1, Enterococcus faecalis HMG-CoA reductase (efHMGR) (Enterococcus faecalis, UniProt A0A4U3MLJ4)", "T1 construct": "gene EY666_03235; C-terminal domain (residues 381-803) of the mvaE gene product, N-terminal 6X-His tag", "assay": "X-ray co-crystal structure ([…] Å)", "assay_type": "binding"}, "[2]": {"molecular_target": "T1, Enterococcus faecalis HMG-CoA reductase (efHMGR)", "assay": "X-ray crystal structure ([…] Å)", "assay_type": "binding"}, "[3]": {"molecular_target": "T1, Enterococcus faecalis HMG-CoA reductase (efHMGR)", "assay": "mevalonate oxidation assay, NADPH absorbance at […] nm; […] inhibition at […]", "assay_type": "biochemical"}, "[4]": {"molecular_target": "T1, Enterococcus faecalis HMG-CoA reductase (efHMGR)", "assay": "X-ray co-crystal structure ([…] Å); mevalonate oxidation enzyme assay with Ki (IC50 […])", "assay_type": "biochemical"}}, "data": [{"smiles": "NC(=O)c1ccc[n+]([C@@H]2O[C@H](COP(=O)(O)OP(=O)(O)OC[C@H]3O[C@@H](n4cnc5c(N)ncnc54)[C@H](OP(=O)(O)O)[C@@H]3O)[C@@H](O)[C@H]2O)c1", "note": "[NADP+]", "values": [{"measurement": "X-ray co-crystal structure (2.27 Å)", "setting": "[1]", "result": "NADP^+ is present in all the active sites and HMG-CoA in only one"}]}, {"smiles": "C[C@@](O)(CCO)CC(=O)O", "note": "[mevalonate]", "values": [{"measurement": "X-ray crystal structure (2.27 Å)", "setting": "[2]", "result": "Density consistent with mevalonate is also found in one of the active sites."}]}, {"smiles": "CC[C@H](C)C(=O)O[C@H]1C[C@@H](C)C=C2C=C[C@H](C)[C@H](CC[C@@H]3C[C@@H](O)CC(=O)O3)[C@H]21", "note": "[lovastatin]", "values": [{"measurement": "inhibition at 50 µM", "setting": "[3]", "result": 32, "unit": "%"}]}, {"smiles": "CC(C)(COP(=O)(O)OP(=O)(O)OC[C@H]1O[C@@H](n2cnc3c(N)ncnc32)[C@H](O)[C@@H]1OP(=O)(O)O)[C@@H](O)C(=O)NCCC(=O)NCCSC(=O)C[C@@](C)(O)CC(=O)O", "note": "[HMG-CoA]", "values": [{"measurement": "X-ray co-crystal structure (2.27 Å)", "setting": "[1]", "result": "HMG-CoA binds to the large domain of one monomer and NADP^+ to small domain of the other monomer"}]}, {"smiles": "CCCCc1ccc(NS(=O)(=O)c2ccc(O)c(C(=O)O)c2)cc1", "note": "[compound 315, 5-{[(4-butylphenyl)amino]sulfonyl}-2-hydroxybenzoic acid]", "values": [{"measurement": "Ki", "setting": "[4]", "result": 2000, "unit": "nM"}]}]}
